According to paper PMC7673538 (PLoS Biology, 2020):

Test system: CV-B3
Experiment: microbe, parasite or virus in culture
Type: cell-based, coxsackievirus B3
Conditions: not given
For COc1ccc(N(Cc2ccc(F)cc2)C(C)=O)cc1 [Compound 5a, N-(4-fluorobenzyl)-N-(4-methoxyphenyl)acetamide], the “antiviral activity against CV-B3 (in words)” value (shortened to “antiviral activity”) was “loss of antiviral activity”. In the case of COc1ccc(N(Cc2ccc(F)cc2)S(=O)(=O)c2ccco2)cc1 [Compound 5b, N-(4-fluorobenzyl)-N-(4-methoxyphenyl)furan-2-sulfonamide], the “antiviral activity” value is reported as “loss of antiviral activity”. For COc1ccc(N(Cc2ccc(F)cc2)C(=O)C2CCCO2)cc1 (stereo not shown) [Compound 5f, N-(4-Fluorobenzyl)-N-(4-methoxyphenyl)tetrahydrofuran-2-carboxamide], the “antiviral activity” value was “loss of antiviral activity”. With CNCC(=O)N(Cc1ccc(F)cc1)c1ccc(OC)cc1 [Compound 6, N-(4-fluorobenzyl)-N-(4-methoxyphenyl)-2-(methylamino)acetamide] the “antiviral activity” value was “loss of antiviral activity”. For COc1ccc(N(Cc2ccc(F)cc2)Cc2ccco2)cc1 [Compound 5g, N-(4-fluorobenzyl)-N-(furan-2-ylmethyl)-4-methoxyaniline], the “antiviral activity” value was “loss of antiviral activity”.

Same assay, conditions: Enterovirus B, CVB3, HeLa R19
With COc1ccc(N(Cc2ccc(F)cc2)C(C)=O)cc1 [Compound 5a, N-(4-fluorobenzyl)-N-(4-methoxyphenyl)acetamide] the EC50 was greater than 30 µM. In the case of COc1ccc(N(Cc2ccc(F)cc2)S(=O)(=O)c2ccco2)cc1 [Compound 5b, N-(4-fluorobenzyl)-N-(4-methoxyphenyl)furan-2-sulfonamide], the EC50 is reported as greater than 30 µM. For COc1ccc(N(Cc2ccc(F)cc2)C(=O)C2CCCO2)cc1 (stereo not shown) [Compound 5f, N-(4-Fluorobenzyl)-N-(4-methoxyphenyl)tetrahydrofuran-2-carboxamide], the EC50 was greater than 30 µM. With CNCC(=O)N(Cc1ccc(F)cc1)c1ccc(OC)cc1 [Compound 6, N-(4-fluorobenzyl)-N-(4-methoxyphenyl)-2-(methylamino)acetamide] the EC50 was greater than 30 µM. Work on COc1ccc(N(Cc2ccc(F)cc2)Cc2ccco2)cc1 [Compound 5g, N-(4-fluorobenzyl)-N-(furan-2-ylmethyl)-4-methoxyaniline] yielded an EC50 greater than 30 µM.

Same assay, conditions: Enterovirus B, CVB3, HeLa R19, read-out: CV-B3 EC50 Average
For COc1ccc(N(Cc2ccc(F)cc2)C(C)=O)cc1 [Compound 5a, N-(4-fluorobenzyl)-N-(4-methoxyphenyl)acetamide], the EC50 was greater than 30 µM. Compound COc1ccc(N(Cc2ccc(F)cc2)S(=O)(=O)c2ccco2)cc1 [Compound 5b, N-(4-fluorobenzyl)-N-(4-methoxyphenyl)furan-2-sulfonamide] has an EC50 greater than 30 µM. COc1ccc(N(Cc2ccc(F)cc2)C(=O)C2CCCO2)cc1 (stereo not shown) [Compound 5f, N-(4-Fluorobenzyl)-N-(4-methoxyphenyl)tetrahydrofuran-2-carboxamide] showed an EC50 greater than 30 µM. CNCC(=O)N(Cc1ccc(F)cc1)c1ccc(OC)cc1 [Compound 6, N-(4-fluorobenzyl)-N-(4-methoxyphenyl)-2-(methylamino)acetamide] showed an EC50 greater than 30 µM. Compound COc1ccc(N(Cc2ccc(F)cc2)Cc2ccco2)cc1 [Compound 5g, N-(4-fluorobenzyl)-N-(furan-2-ylmethyl)-4-methoxyaniline] has an EC50 greater than 30 µM.

Same assay, conditions: Enterovirus B, CVB3, HeLa R19, read-out: CV-B3 Exp 1 EC50
COc1ccc(N(Cc2ccc(F)cc2)C(C)=O)cc1 [Compound 5a, N-(4-fluorobenzyl)-N-(4-methoxyphenyl)acetamide] gave an EC50 greater than 30 µM. Work on COc1ccc(N(Cc2ccc(F)cc2)S(=O)(=O)c2ccco2)cc1 [Compound 5b, N-(4-fluorobenzyl)-N-(4-methoxyphenyl)furan-2-sulfonamide] yielded an EC50 greater than 30 µM. Compound COc1ccc(N(Cc2ccc(F)cc2)C(=O)C2CCCO2)cc1 (stereo not shown) [Compound 5f, N-(4-Fluorobenzyl)-N-(4-methoxyphenyl)tetrahydrofuran-2-carboxamide] has an EC50 greater than 30 µM. With CNCC(=O)N(Cc1ccc(F)cc1)c1ccc(OC)cc1 [Compound 6, N-(4-fluorobenzyl)-N-(4-methoxyphenyl)-2-(methylamino)acetamide] the EC50 was greater than 30 µM. Work on COc1ccc(N(Cc2ccc(F)cc2)Cc2ccco2)cc1 [Compound 5g, N-(4-fluorobenzyl)-N-(furan-2-ylmethyl)-4-methoxyaniline] yielded an EC50 greater than 30 µM.

Same assay, conditions: Enterovirus B, CVB3, HeLa R19, read-out: CV-B3 Exp2 EC50
Compound COc1ccc(N(Cc2ccc(F)cc2)C(C)=O)cc1 [Compound 5a, N-(4-fluorobenzyl)-N-(4-methoxyphenyl)acetamide] has an EC50 greater than 30 µM. With COc1ccc(N(Cc2ccc(F)cc2)S(=O)(=O)c2ccco2)cc1 [Compound 5b, N-(4-fluorobenzyl)-N-(4-methoxyphenyl)furan-2-sulfonamide] the EC50 was greater than 30 µM. Compound COc1ccc(N(Cc2ccc(F)cc2)C(=O)C2CCCO2)cc1 (stereo not shown) [Compound 5f, N-(4-Fluorobenzyl)-N-(4-methoxyphenyl)tetrahydrofuran-2-carboxamide] has an EC50 greater than 30 µM. Work on CNCC(=O)N(Cc1ccc(F)cc1)c1ccc(OC)cc1 [Compound 6, N-(4-fluorobenzyl)-N-(4-methoxyphenyl)-2-(methylamino)acetamide] yielded an EC50 greater than 30 µM. Compound COc1ccc(N(Cc2ccc(F)cc2)Cc2ccco2)cc1 [Compound 5g, N-(4-fluorobenzyl)-N-(furan-2-ylmethyl)-4-methoxyaniline] has an EC50 greater than 30 µM.

Target: T1, human DAT (Homo sapiens, UniProt Q01959)
T1 construct: expressed in transfected cells; host or cells: HEK293 (gift of Dr. Hoener, F. Hoffmann-La Roche)
T1 sequence (Q01959 whole entry): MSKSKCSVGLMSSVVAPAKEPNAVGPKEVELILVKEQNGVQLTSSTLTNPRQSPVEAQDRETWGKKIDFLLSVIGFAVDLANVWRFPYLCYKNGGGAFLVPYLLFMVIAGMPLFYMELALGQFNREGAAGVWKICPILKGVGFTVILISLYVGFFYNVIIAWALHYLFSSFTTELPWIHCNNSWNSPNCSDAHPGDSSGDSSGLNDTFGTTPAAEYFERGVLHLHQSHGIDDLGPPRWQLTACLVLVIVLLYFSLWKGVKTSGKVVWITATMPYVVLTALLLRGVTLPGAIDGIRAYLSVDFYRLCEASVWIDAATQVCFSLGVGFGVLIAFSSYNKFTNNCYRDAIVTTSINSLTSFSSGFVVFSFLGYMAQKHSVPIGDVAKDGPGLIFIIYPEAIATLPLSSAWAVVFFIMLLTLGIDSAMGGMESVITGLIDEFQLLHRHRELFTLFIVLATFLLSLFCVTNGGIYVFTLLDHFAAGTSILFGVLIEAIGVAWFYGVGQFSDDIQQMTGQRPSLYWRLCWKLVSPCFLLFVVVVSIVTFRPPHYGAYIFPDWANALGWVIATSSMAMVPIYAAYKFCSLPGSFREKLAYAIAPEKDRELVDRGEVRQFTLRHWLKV
Experiment: not given
Type: cell-based
Conditions: not given
With CNCCC(Oc1ccc(C(F)(F)F)cc1)c1ccccc1 (stereo not shown) [fluoxetine, reference compound] the “inhibition of DAT function (in words)” value was “promiscuously inhibited also the DAT and NET activity at 100 μM”.

Test system: not listed separately
Experiment: in vitro
Conditions: human, CC50
COc1ccc(N(Cc2ccc(F)cc2)C(C)=O)cc1 [Compound 5a, N-(4-fluorobenzyl)-N-(4-methoxyphenyl)acetamide] gave a CC50 greater than 30 µM. Work on COc1ccc(N(Cc2ccc(F)cc2)S(=O)(=O)c2ccco2)cc1 [Compound 5b, N-(4-fluorobenzyl)-N-(4-methoxyphenyl)furan-2-sulfonamide] yielded a CC50 greater than 30 µM. For COc1ccc(N(Cc2ccc(F)cc2)C(=O)C2CCCO2)cc1 (stereo not shown) [Compound 5f, N-(4-Fluorobenzyl)-N-(4-methoxyphenyl)tetrahydrofuran-2-carboxamide], the CC50 was greater than 30 µM. With CNCC(=O)N(Cc1ccc(F)cc1)c1ccc(OC)cc1 [Compound 6, N-(4-fluorobenzyl)-N-(4-methoxyphenyl)-2-(methylamino)acetamide] the CC50 was greater than 30 µM. COc1ccc(N(Cc2ccc(F)cc2)Cc2ccco2)cc1 [Compound 5g, N-(4-fluorobenzyl)-N-(furan-2-ylmethyl)-4-methoxyaniline] gave a CC50 greater than 30 µM.

Same assay, conditions: human, CC50 Average
Work on COc1ccc(N(Cc2ccc(F)cc2)C(C)=O)cc1 [Compound 5a, N-(4-fluorobenzyl)-N-(4-methoxyphenyl)acetamide] yielded a CC50 greater than 30 µM. With COc1ccc(N(Cc2ccc(F)cc2)S(=O)(=O)c2ccco2)cc1 [Compound 5b, N-(4-fluorobenzyl)-N-(4-methoxyphenyl)furan-2-sulfonamide] the CC50 was greater than 30 µM. Work on COc1ccc(N(Cc2ccc(F)cc2)C(=O)C2CCCO2)cc1 (stereo not shown) [Compound 5f, N-(4-Fluorobenzyl)-N-(4-methoxyphenyl)tetrahydrofuran-2-carboxamide] yielded a CC50 greater than 30 µM. Compound CNCC(=O)N(Cc1ccc(F)cc1)c1ccc(OC)cc1 [Compound 6, N-(4-fluorobenzyl)-N-(4-methoxyphenyl)-2-(methylamino)acetamide] has a CC50 greater than 30 µM. For COc1ccc(N(Cc2ccc(F)cc2)Cc2ccco2)cc1 [Compound 5g, N-(4-fluorobenzyl)-N-(furan-2-ylmethyl)-4-methoxyaniline], the CC50 was greater than 30 µM.

Same assay, conditions: human, Exp 1 CC50
COc1ccc(N(Cc2ccc(F)cc2)C(C)=O)cc1 [Compound 5a, N-(4-fluorobenzyl)-N-(4-methoxyphenyl)acetamide] gave a CC50 greater than 30 µM. COc1ccc(N(Cc2ccc(F)cc2)S(=O)(=O)c2ccco2)cc1 [Compound 5b, N-(4-fluorobenzyl)-N-(4-methoxyphenyl)furan-2-sulfonamide] showed a CC50 greater than 30 µM. Work on COc1ccc(N(Cc2ccc(F)cc2)C(=O)C2CCCO2)cc1 (stereo not shown) [Compound 5f, N-(4-Fluorobenzyl)-N-(4-methoxyphenyl)tetrahydrofuran-2-carboxamide] yielded a CC50 greater than 30 µM. CNCC(=O)N(Cc1ccc(F)cc1)c1ccc(OC)cc1 [Compound 6, N-(4-fluorobenzyl)-N-(4-methoxyphenyl)-2-(methylamino)acetamide] showed a CC50 greater than 30 µM. Work on COc1ccc(N(Cc2ccc(F)cc2)Cc2ccco2)cc1 [Compound 5g, N-(4-fluorobenzyl)-N-(furan-2-ylmethyl)-4-methoxyaniline] yielded a CC50 greater than 30 µM.

Same assay, conditions: human, Exp2 CC50
With COc1ccc(N(Cc2ccc(F)cc2)C(C)=O)cc1 [Compound 5a, N-(4-fluorobenzyl)-N-(4-methoxyphenyl)acetamide] the CC50 was greater than 30 µM. COc1ccc(N(Cc2ccc(F)cc2)S(=O)(=O)c2ccco2)cc1 [Compound 5b, N-(4-fluorobenzyl)-N-(4-methoxyphenyl)furan-2-sulfonamide] showed a CC50 greater than 30 µM. COc1ccc(N(Cc2ccc(F)cc2)C(=O)C2CCCO2)cc1 (stereo not shown) [Compound 5f, N-(4-Fluorobenzyl)-N-(4-methoxyphenyl)tetrahydrofuran-2-carboxamide] showed a CC50 greater than 30 µM. In the case of CNCC(=O)N(Cc1ccc(F)cc1)c1ccc(OC)cc1 [Compound 6, N-(4-fluorobenzyl)-N-(4-methoxyphenyl)-2-(methylamino)acetamide], the CC50 is reported as greater than 30 µM. For COc1ccc(N(Cc2ccc(F)cc2)Cc2ccco2)cc1 [Compound 5g, N-(4-fluorobenzyl)-N-(furan-2-ylmethyl)-4-methoxyaniline], the CC50 was greater than 30 µM.
